Measured values reported in patent publication US20260242563A1, “DEGRADABLE CROSSLINKING AGENT” (NAGASE CHEMTEX CORPORATION, priority 2023, published 2026).

Assay: Water solubility of degradation products in ion exchange water at 20° C.
Settings: 0.3 g in 10 mL of ion exchange water

water solubility	Compound
insoluble	CC(C)(c1ccc(OCC(O)COc2ccc(C(=O)O)cc2)cc1)c1ccc(OCC(O)COc2ccc(C(=O)O)cc2)cc1 (centres unmarked) [Formula (C)]
insoluble	O=C(O)c1cc(C(=O)O)cc(C(=O)O)c1 [trimesic acid]

Same assay, conditions: 0.5 g in 10 mL of ion exchange water

Compound	water solubility
O=C(O)CCCCCO [6-hydroxyhexanoic acid]	soluble

Same assay, conditions: 2 g in 10 mL of ion exchange water

water solubility	Compound
soluble	OCCOCCOCCO [triethylene glycol]

Same assay, conditions: one gram in 10 mL of ion exchange water

water solubility	Compound
soluble	OCCCCCCO [1,6-hexanediol]
soluble	O=C(O)c1cc(C(=O)O)cc(S(=O)(=O)O)c1 [5-sulfoisophthalic acid]
soluble	NCCCCCCN [hexamethylenediamine]
soluble	OCCOCCOCCO [triethylene glycol]

Assay: Adding a small amount of 12% sodium hypochlorite aqueous solution to the cross-linking agent compound
Format: physicochemical
Settings: small amount of 12% sodium hypochlorite aqueous solution added to the compound

Compound	degradation product generated (confirmed by 1H-NMR)	observation upon adding oxidizing agent
C=CCOC(=O)NNC(=O)OCCCCCCOC(=O)NNC(=O)OCC=C [Formula (A3)]	1,6-hexanediol	foaming occurred
C=CCOC(=O)NNC(=O)CCC(NC(=O)NNC(=O)c1cc(C(=O)NNC(=O)NC(CCC(=O)NNC(=O)OCC=C)C(=O)NNC(=O)OCC=C)cc(S(=O)(=O)[O-])c1)C(=O)NNC(=O)OCC=C.[Na+] (centres unmarked) [Formula (A7)]	sodium 5-sulfoisophthalate and glutamic acid	foaming occurred
C=CCOC(=O)NNC(=O)CCC(NC(=O)NNC(=O)CCC(=O)NNC(=O)NC(CCC(=O)NNC(=O)OCC=C)C(=O)NNC(=O)OCC=C)C(=O)NNC(=O)OCC=C (centres unmarked) [Formula (A8)]	succinic acid and glutamic acid	foaming occurred

Further lines, results first:

degradation product generated (confirmed by 1H-NMR)	observation upon adding oxidizing agent	Compound
triethylene glycol	foaming occurred	C=C(C)C(=O)NNC(=O)OCCOCCOCCOC(=O)NNC(=O)C(=C)C [Formula (A1)]
sodium 5-sulfoisophthalate	foaming occurred	NNC(=O)CCC(NC(=O)NNC(=O)c1cc(C(=O)NNC(=O)NC(=O)NC(CCC(=O)NN)C(=O)NN)cc(S(=O)(=O)[O-])c1)C(=O)NN.[Na+] (centres unmarked) [Formula (A6)]
compound of formula (C)	foaming occurred	C=C(C)C(=O)NNC(=O)c1ccc(OCC(O)COc2ccc(C(C)(C)c3ccc(OCC(O)COc4ccc(C(=O)NNC(=O)C(=C)C)cc4)cc3)cc2)cc1 (centres unmarked) [Formula (B), reference compound]
